Results reported in ChEMBL document CHEMBL3351466 (Bioorg Med Chem Lett, 2014).

How the values were obtained:
[1] = target: T1, Transient receptor potential cation channel subfamily V member 1 (Homo sapiens, UniProt Q8NER1); assay: Antagonist activity at human TRPV1 expressed in CHO cells assessed as inhibition of capsaicin-induced increase in intracellular Ca2+ level by FLIPR assay; assay type: cell-based
Mus musculus [2] = assay: Inhibition of capsaicin-induced hypothermia in NMRI mouse compound at 0.3 mg/kg, po administered 15 mins prior challenge measured 30 mins post challenge; assay type: functional
[3] = target: T1, Transient receptor potential cation channel subfamily V member 1; assay: Antagonist activity at human TRPV1 expressed in CHO cells assessed as inhibition of N-arachidonoyl dopamine-induced increase in intracellular Ca2+ level by FLIPR assay; assay type: cell-based
Mus musculus [4] = assay: Inhibition of capsaicin-induced hypothermia in NMRI mouse compound at 0.1 mg/kg, po administered 15 mins prior challenge measured 30 mins post challenge; assay type: functional
Mus musculus [5] = assay: Inhibition of capsaicin-induced hypothermia in NMRI mouse compound administered orally 15 mins prior challenge measured 30 mins post challenge; assay type: functional, organism-based
Rattus norvegicus [6] = assay: Analgesic activity in orally dosed rat Bennett model for neuropathic pain; assay type: functional, organism-based
[7] = target: T1, Transient receptor potential cation channel subfamily V member 1; assay: Antagonist activity at human TRPV1 expressed in CHO cells assessed as inhibition of heat-induced increase in intracellular Ca2+ level by FLIPR assay; assay type: cell-based
Rattus norvegicus [8] = assay: Analgesic activity in rat Bennett model for neuropathic pain at 1 mg/kg, po; assay type: functional
Rattus norvegicus [9] = assay: Analgesic activity in rat Bennett model for neuropathic pain at 0.1 mg/kg, po; assay type: functional
Rattus norvegicus [10] = assay: Analgesic activity in rat Bennett model for neuropathic pain […]; assay type: functional

T1 sequence (Q8NER1 whole entry): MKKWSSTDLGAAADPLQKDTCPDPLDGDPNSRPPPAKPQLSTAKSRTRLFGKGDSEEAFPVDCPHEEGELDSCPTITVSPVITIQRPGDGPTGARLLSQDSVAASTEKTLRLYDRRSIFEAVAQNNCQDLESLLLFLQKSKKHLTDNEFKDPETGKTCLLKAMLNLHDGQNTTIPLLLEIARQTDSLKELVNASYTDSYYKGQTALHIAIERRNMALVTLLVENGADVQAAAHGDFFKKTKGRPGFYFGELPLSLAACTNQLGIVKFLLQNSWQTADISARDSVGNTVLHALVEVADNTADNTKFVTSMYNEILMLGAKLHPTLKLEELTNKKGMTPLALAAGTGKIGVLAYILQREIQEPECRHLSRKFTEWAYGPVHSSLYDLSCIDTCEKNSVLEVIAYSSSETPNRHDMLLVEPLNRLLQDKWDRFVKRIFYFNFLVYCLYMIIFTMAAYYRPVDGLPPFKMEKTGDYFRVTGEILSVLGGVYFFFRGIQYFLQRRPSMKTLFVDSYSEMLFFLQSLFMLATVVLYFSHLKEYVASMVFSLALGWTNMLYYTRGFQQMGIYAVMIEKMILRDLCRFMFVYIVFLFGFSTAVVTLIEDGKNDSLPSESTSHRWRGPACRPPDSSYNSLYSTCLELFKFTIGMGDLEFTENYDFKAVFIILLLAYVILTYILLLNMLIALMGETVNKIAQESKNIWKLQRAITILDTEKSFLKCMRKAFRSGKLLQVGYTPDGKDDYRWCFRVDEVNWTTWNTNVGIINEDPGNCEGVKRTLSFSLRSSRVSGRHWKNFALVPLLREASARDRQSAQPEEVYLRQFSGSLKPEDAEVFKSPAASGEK

## CC(C(=O)NCc1ccc(C(F)(F)F)nc1C1CCC(C(C)(C)C)CC1)c1ccc(NS(C)(=O)=O)c(F)c1 (stereo not drawn)
[1]
  Ki: 0.3 nM

## CC(C(=O)NCc1ccc(C(F)(F)F)nc1C1CCC(F)(F)CC1)c1ccc(NS(C)(=O)=O)c(F)c1 (stereo not drawn)
[1]
  Ki: 1.5 nM

## CCCc1nc(C(F)(F)F)ccc1CNC(=O)C(C)c1ccc(NS(C)(=O)=O)c(F)c1 (stereo not drawn)
[1]
  Ki: 22.7 nM

## CC(C(=O)NCc1ccc(C(F)(F)F)nc1C1=CCC(C(C)(C)C)CC1)c1ccc(NS(C)(=O)=O)c(F)c1 (racemic)
[1]
  Ki: 0.2 nM

## CCC1CCC(c2nc(C(F)(F)F)ccc2CNC(=O)C(C)c2ccc(NS(C)(=O)=O)c(F)c2)CC1 (racemic)
[1]
  Ki: 0.3 nM

## C[C@H](C(=O)NCc1ccc(C(F)(F)F)nc1C1=CCC(C(C)(C)C)CC1)c1ccc(NS(C)(=O)=O)c(F)c1 (stereo partly drawn)
[1]
  Ki: 0.1 nM

## CC1CC=C(c2nc(C(F)(F)F)ccc2CNC(=O)[C@@H](C)c2ccc(NS(C)(=O)=O)c(F)c2)CC1 (stereo partly drawn)
[1]
  Ki: 0.2 nM

## CC(C(=O)NCc1ccc(C(F)(F)F)nc1[C@H]1CC[C@H](C(C)(C)C)CC1)c1ccc(NS(C)(=O)=O)c(F)c1 (stereo partly drawn)
[1]
  Ki: 0.3 nM

## C[C@H](C(=O)NCc1ccc(C(F)(F)F)nc1C1=CCC(C)(C)CC1)c1ccc(NS(C)(=O)=O)c(F)c1
[1]
  Ki: 0.1 nM

## CC(C(=O)NCc1ccc(C(F)(F)F)nc1C1=CCC(C)(C)CC1)c1ccc(NS(C)(=O)=O)c(F)c1 (racemic)
[1]
  Ki: 0.2 nM

## C[C@H](C(=O)NCc1ccc(C(F)(F)F)nc1C1CCCCC1)c1ccc(NS(C)(=O)=O)c(F)c1
[1]
  Ki: 0.3 nM

## CC(C(=O)NCc1ccc(C(F)(F)F)nc1C1CCCCC1)c1ccc(NS(C)(=O)=O)c(F)c1 (stereo not drawn)
Mus musculus [2]
  inhibition in vivo at 0.3 mg/kg: 78%
[3]
  Ki: 0.2 nM
Mus musculus [4]
  inhibition in vivo at 0.1 mg/kg: 24%
Mus musculus [5]
  inhibition: Dose-dependent effect
Rattus norvegicus [6]
  Activity: Dose-dependent effect
[7]
  IC50: 14.1 nM
Rattus norvegicus [8]
  %max: 53%
Rattus norvegicus [9]
  %max: 25%

## CC1C=C(c2nc(C(F)(F)F)ccc2CNC(=O)C(C)c2ccc(NS(C)(=O)=O)c(F)c2)CCC1 (stereo not drawn)
[1]
  Ki: 0.2 nM

## CC1CCC(c2nc(C(F)(F)F)ccc2CNC(=O)C(C)c2ccc(NS(C)(=O)=O)c(F)c2)CC1 (stereo not drawn)
[1]
  Ki: 0.4 nM

## CC(C(=O)NCc1ccc(C(F)(F)F)nc1C1CCC(C)(C)CC1)c1ccc(NS(C)(=O)=O)c(F)c1 (racemic)
[1]
  Ki: 0.4 nM

## CC(C(=O)NCc1ccc(C(F)(F)F)nc1C1CC2CCC1C2)c1ccc(NS(C)(=O)=O)c(F)c1 (racemic)
[1]
  Ki: 1.5 nM

## CC(C)C[C@H](CN)CC(=O)O [PREGABALIN]
Rattus norvegicus [10]
  ED50: 42.2 mg/kg

## C[C@H](C(=O)NCc1ccc(C(F)(F)F)nc1C1CC2CCC1C2)c1ccc(NS(C)(=O)=O)c(F)c1 (stereo partly drawn)
[1]
  Ki: 0.8 nM

## CCC1CCC(c2nc(C(F)(F)F)ccc2CNC(=O)[C@@H](C)c2ccc(NS(C)(=O)=O)c(F)c2)CC1 (stereo partly drawn)
[1]
  Ki: 0.2 nM

## CC(C(=O)NCc1ccc(C(F)(F)F)nc1[C@H]1CC[C@@H](C(C)(C)C)CC1)c1ccc(NS(C)(=O)=O)c(F)c1 (stereo partly drawn)
[1]
  Ki: 1.3 nM

## C[C@H](C(=O)NCc1ccc(C(F)(F)F)nc1C1CCC(C)(C)CC1)c1ccc(NS(C)(=O)=O)c(F)c1
[1]
  Ki: 0.3 nM
